Data: publication PMC7206119, “RIP1 inhibition blocks inflammatory diseases but not tumor growth or metastases” (Cell Death and Differentiation, 2019)

How the values were obtained:
Assay in all cases: biochemical
Parameters in all cases: DiscoverX kinase panel, active-site competition binding (KINOMEscan type), percent of control at one concentration
Settings in all cases: competition binding, percent of control
[1] = molecular target: EPHB3 (Homo sapiens, UniProt P54753)
[2] = molecular target: CAMK2D (Homo sapiens, UniProt Q13557)
[3] = molecular target: PIK3CA(H1047Y) (Homo sapiens, UniProt P42336, H1047Y)
[4] = molecular target: T1, AMPK-alpha2 (Homo sapiens, UniProt P54646)
T1 construct: gene PRKAA2

[5] = molecular target: CDKL2 (Homo sapiens, UniProt Q92772)
[6] = molecular target: T2, DCAMKL3 (Homo sapiens, UniProt Q9C098)
T2 construct: gene DCLK3

[7] = molecular target: T3, JAK1(JH2domain-pseudokinase) (Homo sapiens, UniProt P23458)
T3 construct: JH2domain-pseudokinase

[8] = molecular target: TSSK3 (Homo sapiens, UniProt Q96PN8)
[9] = molecular target: PIK3CA(E545K) (Homo sapiens, UniProt P42336, E545K)
[10] = molecular target: T4, PFTK1 (Homo sapiens, UniProt O94921)
T4 construct: gene CDK14

[11] = molecular target: T5, SNARK (Homo sapiens, UniProt Q9H093)
T5 construct: gene NUAK2

[12] = molecular target: MAP4K4 (Homo sapiens, UniProt O95819)
[13] = molecular target: MYO3B (Homo sapiens, UniProt Q8WXR4)
[14] = molecular target: CAMK1 (Homo sapiens, UniProt Q14012)
[15] = molecular target: FGFR2 (Homo sapiens, UniProt P21802)
[16] = molecular target: LYN (Homo sapiens, UniProt P07948)
[17] = molecular target: T6, VEGFR2 (Homo sapiens, UniProt P35968)
T6 construct: gene KDR

[18] = molecular target: MAP4K2 (Homo sapiens, UniProt Q12851)
[19] = molecular target: T7, ABL1(Q252H)-phosphorylated (Homo sapiens, UniProt P00519, Q252H)
T7 construct: phosphorylated

[20] = molecular target: LATS1 (Homo sapiens, UniProt O95835)
[21] = molecular target: MARK3 (Homo sapiens, UniProt P27448)

T6 sequence (P35968 whole entry): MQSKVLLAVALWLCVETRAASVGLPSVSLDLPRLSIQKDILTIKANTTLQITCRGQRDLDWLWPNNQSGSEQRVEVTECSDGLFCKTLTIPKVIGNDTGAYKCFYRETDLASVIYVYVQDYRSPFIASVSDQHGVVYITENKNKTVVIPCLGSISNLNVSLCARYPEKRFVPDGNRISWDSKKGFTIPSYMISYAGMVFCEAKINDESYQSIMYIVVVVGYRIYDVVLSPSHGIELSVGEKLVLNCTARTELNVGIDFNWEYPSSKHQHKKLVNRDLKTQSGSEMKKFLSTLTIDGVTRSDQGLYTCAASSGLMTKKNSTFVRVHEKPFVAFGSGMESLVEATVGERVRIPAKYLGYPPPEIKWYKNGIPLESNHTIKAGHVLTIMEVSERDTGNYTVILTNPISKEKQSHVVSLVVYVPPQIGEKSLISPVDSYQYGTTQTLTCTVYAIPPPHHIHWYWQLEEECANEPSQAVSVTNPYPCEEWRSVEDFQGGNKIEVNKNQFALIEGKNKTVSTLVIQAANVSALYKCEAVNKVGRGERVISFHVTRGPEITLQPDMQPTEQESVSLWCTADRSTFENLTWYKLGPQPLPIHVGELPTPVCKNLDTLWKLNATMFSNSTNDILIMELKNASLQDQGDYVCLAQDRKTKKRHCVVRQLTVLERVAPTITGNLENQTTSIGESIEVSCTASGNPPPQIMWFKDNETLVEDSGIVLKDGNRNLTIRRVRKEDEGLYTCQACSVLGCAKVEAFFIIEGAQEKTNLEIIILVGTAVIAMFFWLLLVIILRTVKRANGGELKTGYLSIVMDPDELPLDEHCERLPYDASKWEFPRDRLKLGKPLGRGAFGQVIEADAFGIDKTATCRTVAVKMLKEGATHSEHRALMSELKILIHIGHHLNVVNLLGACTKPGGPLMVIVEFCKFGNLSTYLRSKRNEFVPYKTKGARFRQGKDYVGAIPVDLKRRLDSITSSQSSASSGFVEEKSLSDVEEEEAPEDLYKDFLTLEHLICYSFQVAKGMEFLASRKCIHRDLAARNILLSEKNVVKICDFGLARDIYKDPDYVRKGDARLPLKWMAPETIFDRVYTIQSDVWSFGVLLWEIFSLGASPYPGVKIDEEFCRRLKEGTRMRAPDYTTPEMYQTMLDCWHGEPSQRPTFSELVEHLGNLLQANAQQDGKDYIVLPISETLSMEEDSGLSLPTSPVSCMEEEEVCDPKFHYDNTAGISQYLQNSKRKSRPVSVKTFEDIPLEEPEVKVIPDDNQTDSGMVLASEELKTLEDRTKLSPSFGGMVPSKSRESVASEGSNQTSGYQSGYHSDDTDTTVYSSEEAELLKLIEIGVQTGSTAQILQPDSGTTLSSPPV
Chain of MYO3B (Q8WXR4 whole entry): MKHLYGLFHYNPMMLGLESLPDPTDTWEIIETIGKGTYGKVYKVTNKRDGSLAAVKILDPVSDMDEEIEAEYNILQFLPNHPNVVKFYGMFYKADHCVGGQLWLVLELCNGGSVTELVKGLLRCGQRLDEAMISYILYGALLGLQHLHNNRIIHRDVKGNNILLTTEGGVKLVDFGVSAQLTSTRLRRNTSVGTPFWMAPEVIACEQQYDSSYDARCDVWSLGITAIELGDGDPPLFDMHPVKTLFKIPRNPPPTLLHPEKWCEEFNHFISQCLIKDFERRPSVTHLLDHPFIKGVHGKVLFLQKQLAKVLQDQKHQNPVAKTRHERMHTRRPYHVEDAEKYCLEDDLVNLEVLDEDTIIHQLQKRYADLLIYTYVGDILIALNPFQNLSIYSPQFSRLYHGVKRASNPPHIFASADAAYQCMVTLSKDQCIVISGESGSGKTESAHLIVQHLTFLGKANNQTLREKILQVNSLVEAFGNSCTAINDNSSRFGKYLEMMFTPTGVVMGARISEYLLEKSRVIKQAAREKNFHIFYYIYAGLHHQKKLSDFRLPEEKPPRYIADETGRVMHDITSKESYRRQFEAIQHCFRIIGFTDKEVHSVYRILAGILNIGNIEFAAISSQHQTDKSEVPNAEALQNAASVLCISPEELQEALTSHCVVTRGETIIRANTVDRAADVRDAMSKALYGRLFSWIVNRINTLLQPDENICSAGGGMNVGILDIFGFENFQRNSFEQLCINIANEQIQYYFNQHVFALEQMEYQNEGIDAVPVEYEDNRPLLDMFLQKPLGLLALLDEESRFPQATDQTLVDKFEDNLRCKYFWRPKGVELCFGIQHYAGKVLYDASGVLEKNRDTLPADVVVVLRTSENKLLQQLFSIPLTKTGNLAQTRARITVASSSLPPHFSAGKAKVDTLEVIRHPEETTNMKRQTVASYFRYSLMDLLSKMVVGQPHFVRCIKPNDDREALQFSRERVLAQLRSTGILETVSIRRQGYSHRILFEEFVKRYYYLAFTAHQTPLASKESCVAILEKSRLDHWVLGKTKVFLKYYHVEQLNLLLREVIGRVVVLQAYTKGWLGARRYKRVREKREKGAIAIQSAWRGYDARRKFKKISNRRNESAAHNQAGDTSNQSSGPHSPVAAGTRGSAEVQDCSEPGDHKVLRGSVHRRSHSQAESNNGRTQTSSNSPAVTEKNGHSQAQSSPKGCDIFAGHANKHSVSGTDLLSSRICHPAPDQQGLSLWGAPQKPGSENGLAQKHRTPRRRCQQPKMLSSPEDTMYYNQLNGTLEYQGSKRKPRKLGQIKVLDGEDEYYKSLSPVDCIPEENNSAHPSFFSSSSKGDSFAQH
Chain of FGFR2 (P21802 whole entry): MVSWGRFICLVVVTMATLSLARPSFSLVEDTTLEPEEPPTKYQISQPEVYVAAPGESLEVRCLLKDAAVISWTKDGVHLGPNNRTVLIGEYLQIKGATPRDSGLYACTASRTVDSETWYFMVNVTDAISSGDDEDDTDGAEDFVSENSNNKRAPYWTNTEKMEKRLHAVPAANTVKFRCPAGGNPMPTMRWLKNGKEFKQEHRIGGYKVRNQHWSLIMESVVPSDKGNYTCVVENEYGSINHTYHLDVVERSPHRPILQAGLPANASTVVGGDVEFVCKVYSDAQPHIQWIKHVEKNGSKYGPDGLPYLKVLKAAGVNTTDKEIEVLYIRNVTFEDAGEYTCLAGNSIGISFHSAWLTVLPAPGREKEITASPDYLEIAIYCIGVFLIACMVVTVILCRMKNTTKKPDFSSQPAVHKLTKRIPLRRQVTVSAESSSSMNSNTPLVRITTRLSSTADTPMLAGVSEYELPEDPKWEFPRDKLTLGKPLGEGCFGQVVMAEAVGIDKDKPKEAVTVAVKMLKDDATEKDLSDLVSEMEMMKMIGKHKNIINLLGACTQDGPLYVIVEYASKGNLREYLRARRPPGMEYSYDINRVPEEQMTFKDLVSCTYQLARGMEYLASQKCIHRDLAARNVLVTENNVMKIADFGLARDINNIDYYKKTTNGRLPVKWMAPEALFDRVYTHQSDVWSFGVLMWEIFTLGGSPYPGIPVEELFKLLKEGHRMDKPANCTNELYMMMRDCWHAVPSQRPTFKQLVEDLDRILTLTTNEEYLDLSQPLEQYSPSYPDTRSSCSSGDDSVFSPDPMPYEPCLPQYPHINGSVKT
Chain of MAP4K4 (O95819 whole entry): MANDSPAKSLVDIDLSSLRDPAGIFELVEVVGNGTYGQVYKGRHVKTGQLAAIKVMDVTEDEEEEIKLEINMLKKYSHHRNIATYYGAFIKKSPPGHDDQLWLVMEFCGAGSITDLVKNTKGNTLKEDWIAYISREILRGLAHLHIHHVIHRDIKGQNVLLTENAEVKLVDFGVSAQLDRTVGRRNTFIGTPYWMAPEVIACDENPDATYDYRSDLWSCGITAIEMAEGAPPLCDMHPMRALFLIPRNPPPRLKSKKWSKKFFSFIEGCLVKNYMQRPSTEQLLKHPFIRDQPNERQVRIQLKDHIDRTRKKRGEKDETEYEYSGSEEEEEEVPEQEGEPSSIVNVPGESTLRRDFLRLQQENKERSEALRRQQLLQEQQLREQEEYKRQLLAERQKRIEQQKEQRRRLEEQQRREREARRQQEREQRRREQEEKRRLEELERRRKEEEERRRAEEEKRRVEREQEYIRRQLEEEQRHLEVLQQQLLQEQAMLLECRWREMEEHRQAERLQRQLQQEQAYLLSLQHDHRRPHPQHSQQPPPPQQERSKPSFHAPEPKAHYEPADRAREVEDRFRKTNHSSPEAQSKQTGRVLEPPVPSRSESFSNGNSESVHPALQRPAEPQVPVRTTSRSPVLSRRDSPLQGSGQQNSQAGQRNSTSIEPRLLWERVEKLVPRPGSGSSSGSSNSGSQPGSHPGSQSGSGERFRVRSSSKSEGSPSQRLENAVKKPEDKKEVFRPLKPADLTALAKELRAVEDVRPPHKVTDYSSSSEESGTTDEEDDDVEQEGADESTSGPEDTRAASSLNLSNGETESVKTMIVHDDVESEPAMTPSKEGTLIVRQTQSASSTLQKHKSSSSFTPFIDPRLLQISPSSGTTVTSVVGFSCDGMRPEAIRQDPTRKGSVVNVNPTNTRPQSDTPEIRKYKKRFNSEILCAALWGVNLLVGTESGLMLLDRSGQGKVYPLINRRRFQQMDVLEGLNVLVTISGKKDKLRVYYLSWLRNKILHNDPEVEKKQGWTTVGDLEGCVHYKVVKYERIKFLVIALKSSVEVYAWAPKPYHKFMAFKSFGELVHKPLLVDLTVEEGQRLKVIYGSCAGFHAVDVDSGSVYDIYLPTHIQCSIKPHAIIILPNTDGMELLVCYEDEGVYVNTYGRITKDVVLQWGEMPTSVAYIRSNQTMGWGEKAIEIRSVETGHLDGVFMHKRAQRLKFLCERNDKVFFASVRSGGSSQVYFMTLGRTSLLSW
Chain of TSSK3 (Q96PN8 whole entry): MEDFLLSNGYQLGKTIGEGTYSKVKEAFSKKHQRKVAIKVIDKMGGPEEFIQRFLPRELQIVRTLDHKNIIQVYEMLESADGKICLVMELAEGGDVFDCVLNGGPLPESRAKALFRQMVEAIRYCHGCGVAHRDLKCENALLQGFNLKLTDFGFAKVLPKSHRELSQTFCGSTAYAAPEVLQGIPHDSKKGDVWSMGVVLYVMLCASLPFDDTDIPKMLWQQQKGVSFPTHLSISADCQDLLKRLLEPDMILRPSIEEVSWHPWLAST

Compound: COc1cc2c(cn1)N(C)C(=O)[C@@H](NC(=O)c1nc3n(n1)[C@H](c1ccccc1)CC3)CC2 [GNE684, (S)-N-((S)-7-methoxy-1-methyl-2-oxo-2,3,4,5-tetrahydro-1H-pyrido[3,4-b]azepin-3-yl)-5-phenyl-6,7-dihydro-5H-pyrrolo[1,2-b][1,2,4]triazole-2-carboxamide]
- remaining binding at 10 µM [1]: 100%
- remaining binding at 10 µM [2]: 100%
- remaining binding at 10 µM [3]: 93%
- remaining binding at 10 µM [4]: 81%
- remaining binding at 10 µM [5]: 95%
- remaining binding at 10 µM [6]: 92%
- remaining binding at 10 µM [7]: 48%
- remaining binding at 10 µM [8]: 96%
- remaining binding at 10 µM [9]: 55%
- remaining binding at 10 µM [10]: 79%
- remaining binding at 10 µM [11]: 100%
- remaining binding at 10 µM [12]: 73%
- remaining binding at 10 µM [13]: 89%
- remaining binding at 10 µM [14]: 91%
- remaining binding at 10 µM [15]: 99%
- remaining binding at 10 µM [16]: 94%
- remaining binding at 10 µM [17]: 93%
- remaining binding at 10 µM [18]: 100%
- remaining binding at 10 µM [19]: 96%
- remaining binding at 10 µM [20]: 89%
- remaining binding at 10 µM [21]: 100%
